# Structures can show the parent of a compound that is named as a salt. Where two headings read alike, the source gives them in different places.
# What was measured:
# [1] = tested on: NCI-H292 lung cancer cells; assay: FDA drug screening, complete media vs cholesterol-free media with simvastatin (TABLE 2); format: cell-based, human
# [2] = tested on: NCI-H292 lung cancer cells; assay: FDA drug screening, complete media vs cholesterol-free media without statin (TABLE 1); format: cell-based, human
# [3] = NCI-H292 cells, drug in cholesterol-free media with simvastatin 0.04 μM
# [4] = NCI-H292 cells, drug in complete media
# [5] = complete media vs cholesterol-free media + simvastatin (0.04 μM), >0 enhanced anti-cancer activity, about 0 neutral, <0 antagonist
# [6] = NCI-H292 cells, cholesterol-free media without statin
# [7] = complete vs cholesterol-free media, greater than 0 enhanced anti-cancer activity, about 0 neutral, below 0 antagonists
# [8] = NCI-H292 cells, FDA drug library screen, cholesterol-free media with simvastatin 0.04 μM
# [9] = NCI-H292 cells, FDA drug library screen, complete media
# [10] = Complete minus Cholesterol-free, greater than 0 enhanced anti-cancer activity, about 0 neutral, below 0 antagonist
# [11] = NCI-H292 cells, FDA drug library screen, cholesterol-free media without statin
# [12] = Complete minus Cholesterol-free, greater than 0 enhanced anti-cancer activity, about 0 neutral, below 0 antagonists
# [13] = NCI-H292 cells in cholesterol-free media without statin
# [14] = NCI-H292 cells in complete media
# [15] = NCI-H292 cells, cholesterol-free media with simvastatin 0.04 μM, FDA drug library screen (TABLE 2)
# [16] = NCI-H292 cells, complete media, FDA drug library screen (TABLE 2)
# [17] = complete media minus cholesterol-free media + simvastatin (0.04 μM), >0 enhanced anti-cancer activity, about 0 neutral, <0 antagonist
# [18] = NCI-H292 cells, cholesterol-free media without statin, FDA drug library screen
# [19] = complete vs cholesterol-free media, >0 enhanced anti-cancer activity, about 0 neutral, <0 antagonist
# [20] = complete media minus cholesterol-free media + simvastatin, >0 enhanced anti-cancer activity, about 0 neutral, <0 antagonist
# [21] = Complete minus Cholesterol-free, >0 enhanced anti-cancer activity, about 0 neutral, <0 antagonist
# [22] = complete media vs cholesterol-free media + simvastatin (0.04 μM), […]
# [23] = NCI-H292 cells, complete media, FDA drug library screen
# [24] = NCI-H292 cells, cholesterol-free media with simvastatin 0.04 μM, cell growth value in FDA drug screen
# [25] = NCI-H292 cells, complete media, cell growth value in FDA drug screen
# [26] = Complete minus Cholesterol-free, […]
molecule,measurement,setting,value
NC(=O)N1c2ccccc2C=Cc2ccccc21 [Carbamazepine],Cholesterol-free media + simvastatin (0.04 μM),[1]; [3],1.226
same,Complete Media,[1]; [4],0.9955
same,Difference,[1]; [5],−0.23
same,Cholesterol-free,[2]; [6],1.302
same,Complete,"[2]; NCI-H292 cells, complete media",0.9337
same,Difference,[2]; [7],−0.37
OC[C@@H](O)CN1CCN(c2ccccc2)CC1 [Levodropropizine],Cholesterol-free media + simvastatin (0.04 μM),[1]; [8],1.096
same,Complete Media,[1]; [9],0.9475
same,Difference,[1]; [5],−0.15
same,Difference,[2]; [10],−0.15
same,Cholesterol-free,[2]; [11],0.946
same,Complete,[2]; [9],0.7999
C[C@H](N[C@@H](CCc1ccccc1)C(=O)O)C(=O)N1CCC[C@H]1C(=O)O.O.O [Enalaprilat (dihydrate)],Cholesterol-free media + simvastatin (0.04 μM),"[1]; NCI-H292 cells, FDA library drug in cholesterol-free media with simvastatin 0.04 μM",1.635
same,Complete Media,"[1]; NCI-H292 cells, FDA library drug in complete media",1.051
same,Difference,[1]; [5],−0.58
same,Difference,[2]; [12],−0.58
same,Cholesterol-free,[2]; [13],1.525
same,Complete,[2]; [14],0.949
CC1(C)[C@H](C(=O)O)N2C(=O)C[C@H]2S1(=O)=O [Sulbactam],Cholesterol-free media + simvastatin (0.04 μM),[1],1.06
same,Complete Media,[1],1.241
same,Difference,[1],0.18
same,Cholesterol-free,[2],1.094
same,Complete,[2],1.056
same,Difference,[2],−0.04
C=CCN1CCc2nc(N)sc2CC1 [Talipexole dihydrochloride],Cholesterol-free media + simvastatin (0.04 μM),[1]; [3],1.333
same,Complete Media,[1]; [4],1.079
same,Difference,[1]; [5],−0.25
same,Difference,[2]; [10],−0.09
same,Cholesterol-free,[2]; [11],1.016
same,Complete,[2]; [9],0.9282
CC(=O)Oc1ccccc1C(=O)Nc1ncc([N+](=O)[O-])s1 [Nitazoxanide],Cholesterol-free media + simvastatin (0.04 μM),[1]; [15],1.209
same,Complete Media,[1]; [16],1.209
same,Difference,[1]; [17],0.00
same,Cholesterol-free,[2]; [18],1.033
same,Difference,[2]; [19],0.12
N#Cc1cc(NC(=O)C(=O)O)c(Cl)c(NC(=O)C(=O)O)c1.NC(CO)(CO)CO.NC(CO)(CO)CO [Lodoxamide (tromethamine)],Cholesterol-free media + simvastatin (0.04 μM),[1]; [8],0.9835
same,Complete Media,[1]; [9],1.282
same,Difference,[1]; [20],0.30
same,Difference,[2]; [10],−0.13
same,Cholesterol-free,[2]; [11],0.8848
same,Complete,[2]; [9],0.7586
CC[C@@H]1/C=C(\C)C[C@H](C)C[C@H](OC)[C@H]2O[C@@](O)(C(=O)C(=O)N3CCCC[C@H]3C(=O)O[C@H](/C(C)=C/[C@@H]3CC[C@H](Cl)[C@H](OC)C3)[C@H](C)[C@@H](O)CC1=O)[C@H](C)C[C@@H]2OC [Pimecrolimus],Cholesterol-free media + simvastatin (0.04 μM),[1]; [3],1.1
same,Complete Media,[1]; [4],0.8909
same,Difference,[1]; [5],−0.21
same,Difference,[2]; [21],−0.26
same,Cholesterol-free,[2]; [6],1.022
same,Complete,"[2]; NCI-H292 cells, complete media",0.7576
CNNCc1ccc(C(=O)NC(C)C)cc1 [Procarbazine (Hydrochloride)],Cholesterol-free media + simvastatin (0.04 μM),[1]; [8],0.7556
same,Complete Media,[1]; [9],1.193
same,Difference,[1]; [20],0.44
same,Difference,[2]; [12],−0.50
same,Complete,[2]; [14],1.119
COc1cc2nc(N3CCN(C(=O)[C@H]4CCCO4)CC3)nc(N)c2cc1OC [(R)-Terazosin],Cholesterol-free media + simvastatin (0.04 μM),[1]; [15],0.9379
same,Complete Media,[1]; [16],0.9227
same,Difference,[1]; [17],−0.02
same,Cholesterol-free,[2]; [6],1.165
same,Complete,"[2]; NCI-H292 cells, complete media",0.7551
same,Difference,[2]; [7],−0.41
CC1(C)S[C@@H]2[C@H](NC(=O)[C@H](NC(=O)N3CCNC3=O)c3ccccc3)C(=O)N2[C@H]1C(=O)O [Azlocillin (sodium salt)],Cholesterol-free media + simvastatin (0.04 μM),[1]; [8],1.046
same,Complete Media,[1]; [9],0.9592
same,Difference,[1]; [5],−0.09
same,Difference,[2]; [10],−0.16
same,Cholesterol-free,[2]; [11],1.217
same,Complete,[2]; [9],1.06
Colistin (sulfate),Cholesterol-free media + simvastatin (0.04 μM),[1]; [3],1.189
same,Complete Media,[1]; [4],0.9801
same,Difference,[1]; [22],−0.21
same,Difference,"[2]; complete vs cholesterol-free media, […]",0.08
C#CCN(C)Cc1ccccc1 [Pargyline (hydrochloride)],Cholesterol-free media + simvastatin (0.04 μM),[1]; [15],0.8767
same,Complete Media,[1]; [16],0.8243
same,Difference,[1]; [17],−0.05
same,Cholesterol-free,[2]; [6],1.204
same,Complete,"[2]; NCI-H292 cells, complete media",0.7875
same,Difference,[2]; [7],−0.42
CC(=O)O[C@]1(C(C)=O)CC[C@H]2[C@@H]3C=C(Cl)C4=CC(=O)CC[C@]4(C)[C@H]3CC[C@@]21C [Chlormadinone acetate],Cholesterol-free media + simvastatin (0.04 μM),[1]; [15],1.079
same,Complete Media,[1]; [16],1.06
same,Difference,[1]; [17],−0.02
same,Difference,[2]; [12],−0.74
same,Cholesterol-free,[2]; [13],1.695
same,Complete,[2]; [14],0.9505
C[C@]12C=CC(=O)C=C1CC[C@@H]1[C@@H]2[C@@H](O)C[C@@]2(C)[C@H]1CC[C@]2(O)C(=O)CO [Prednisolone],Cholesterol-free media + simvastatin (0.04 μM),[1]; [3],0.6412
same,Complete Media,[1]; [4],0.4437
same,Difference,[1]; [5],−0.20
same,Difference,[2]; [21],−0.02
same,Cholesterol-free,[2]; [18],0.4941
same,Complete,[2]; [23],0.4768
CN1CCN(CC/C=C2/c3ccccc3Sc3ccc(S(=O)(=O)N(C)C)cc32)CC1 [(Z)-Thiothixene],Cholesterol-free media + simvastatin (0.04 μM),[1]; [24],0.9883
same,Complete Media,[1]; [25],1.062
same,Difference,[1]; [20],0.07
same,Difference,[2]; [21],−0.29
same,Cholesterol-free,[2]; [6],1.344
same,Complete,"[2]; NCI-H292 cells, complete media",1.05
COc1cc2c(cc1OC)-c1cc3ccc(OC)c(OC)c3c[n+]1CC2.[Cl-] [Palmatine (chloride)],Cholesterol-free media + simvastatin (0.04 μM),[1]; [15],0.706
same,Complete Media,[1]; [16],0.6459
same,Difference,"[1]; complete media minus cholesterol-free media + simvastatin (0.04 μM), […]",−0.06
same,Difference,[2]; [26],−0.14
same,Cholesterol-free,[2]; [11],0.7642
same,Complete,[2]; [9],0.6255
CN(C)CCOC(c1ccccc1)c1ccccc1 [Diphenhydramine (hydrochloride)],Cholesterol-free media + simvastatin (0.04 μM),[1]; [8],0.5789
same,Complete Media,[1]; [9],0.7429
same,Difference,[1]; [20],0.16
same,Difference,[2]; [21],−0.19
same,Cholesterol-free,[2]; [6],1.083
same,Complete,"[2]; NCI-H292 cells, complete media",0.8936
Pheniramine (Maleate),Cholesterol-free media + simvastatin (0.04 μM),[1]; [15],1.33
same,Complete Media,[1]; [16],1.284
same,Difference,[1]; [17],−0.05
same,Difference,[2]; [12],−0.65
same,Cholesterol-free,[2]; [13],1.526
same,Complete,[2]; [14],0.8791
Inulin,Cholesterol-free media + simvastatin (0.04 μM),[1]; [3],1.179
same,Complete Media,[1]; [4],0.9318
same,Difference,[1]; [22],−0.25
same,Difference,[2]; [26],−0.02
same,Cholesterol-free,[2]; [18],0.9221
same,Complete,[2]; [23],0.9055
CN1CCCC(n2nc(Cc3ccc(Cl)cc3)c3ccccc3c2=O)CC1 (centres unmarked) [Azelastine (hydrochloride)],Cholesterol-free media + simvastatin (0.04 μM),[1]; [3],1.092
same,Complete Media,[1]; [4],0.8741
same,Difference,[1]; [5],−0.22
same,Cholesterol-free,[2]; [18],0.9594
same,Complete,[2]; [23],1.039
same,Difference,[2]; [19],0.08
O=C1OC2(c3ccc(O)cc3Oc3cc(O)ccc32)c2ccccc21 [Fluorescein],Cholesterol-free media + simvastatin (0.04 μM),[1]; [3],1.054
same,Complete Media,[1]; [4],0.8464
same,Difference,[1]; [5],−0.21
same,Cholesterol-free,[2]; [6],1.153
same,Complete,"[2]; NCI-H292 cells, complete media",0.6958
same,Difference,[2]; [7],−0.46
O=C1Nc2ccc(Cl)cc2[C@@](C#CC2CC2)(C(F)(F)F)O1 [Efavirenz],Cholesterol-free media + simvastatin (0.04 μM),[1]; [24],1.215
same,Complete Media,[1]; [25],1.301
same,Difference,[1]; [20],0.09
same,Cholesterol-free,[2]; [6],1.108
same,Complete,"[2]; NCI-H292 cells, complete media",0.7866
same,Difference,[2]; [7],−0.32

# — US20250144067A1, “PERSONALIZED STARVATION THERAPY FOR CANCER” (Faeth Therapeutics, Inc., priority 2021, published 2025)
